Patent US11993599B2, “Therapeutic compounds” (Genentech, Inc., priority 2021, dated 2024)

Assays:
BRG1 = target: T1, BRG1 (Homo sapiens, UniProt P51532); experiment: Immunofluorescence assay for BRG1 degradation in SW1573 cells; format: cell-based; conditions: 20 hours incubation; for DC50: immunofluorescence mean nuclear signal, read-out: BRG1 IF Degradation IC50; for Dmax: SW1573, 20 h, normalized to a known degrader control, read-out: BRG1 IF Degradation Sinf (%)
T1 construct: either BRM primary antibody (Cell signaling Cat #11966) or BRG primary antibody (Abcam, ab 110641); endogenous in cells; host or cells: SW1573
Procedure, shortened: (§1)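 Read-out: mean per-cell nuclear BRM or BRG1 immunofluorescence by automated imaging. SW1573, 20 h compound, 4% formaldehyde fix, Triton permeabilization, overnight 4 °C primary antibody, fluorescent secondary plus Hoechst. Normalized to reference degrader; floating-max curve fit gives Dmax.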

BRM = BRM (Homo sapiens, UniProt P51531); experiment: Immunofluorescence assay for BRM degradation in SW1573 cells; format: cell-based; design: treated overnight at 4° C. with either BRM primary antibody (Cell signaling Cat #11966) or BRG primary antibody; endogenous in cells; host or cells: SW1573; conditions: 20 hours incubation; for DC50: immunofluorescence mean nuclear signal, read-out: BRM IF Degradation IC50; for BRM IF Degradation Sinf (%): normalized to a known degrader control
Procedure, shortened: as §1

T1 sequence (P51532 whole entry): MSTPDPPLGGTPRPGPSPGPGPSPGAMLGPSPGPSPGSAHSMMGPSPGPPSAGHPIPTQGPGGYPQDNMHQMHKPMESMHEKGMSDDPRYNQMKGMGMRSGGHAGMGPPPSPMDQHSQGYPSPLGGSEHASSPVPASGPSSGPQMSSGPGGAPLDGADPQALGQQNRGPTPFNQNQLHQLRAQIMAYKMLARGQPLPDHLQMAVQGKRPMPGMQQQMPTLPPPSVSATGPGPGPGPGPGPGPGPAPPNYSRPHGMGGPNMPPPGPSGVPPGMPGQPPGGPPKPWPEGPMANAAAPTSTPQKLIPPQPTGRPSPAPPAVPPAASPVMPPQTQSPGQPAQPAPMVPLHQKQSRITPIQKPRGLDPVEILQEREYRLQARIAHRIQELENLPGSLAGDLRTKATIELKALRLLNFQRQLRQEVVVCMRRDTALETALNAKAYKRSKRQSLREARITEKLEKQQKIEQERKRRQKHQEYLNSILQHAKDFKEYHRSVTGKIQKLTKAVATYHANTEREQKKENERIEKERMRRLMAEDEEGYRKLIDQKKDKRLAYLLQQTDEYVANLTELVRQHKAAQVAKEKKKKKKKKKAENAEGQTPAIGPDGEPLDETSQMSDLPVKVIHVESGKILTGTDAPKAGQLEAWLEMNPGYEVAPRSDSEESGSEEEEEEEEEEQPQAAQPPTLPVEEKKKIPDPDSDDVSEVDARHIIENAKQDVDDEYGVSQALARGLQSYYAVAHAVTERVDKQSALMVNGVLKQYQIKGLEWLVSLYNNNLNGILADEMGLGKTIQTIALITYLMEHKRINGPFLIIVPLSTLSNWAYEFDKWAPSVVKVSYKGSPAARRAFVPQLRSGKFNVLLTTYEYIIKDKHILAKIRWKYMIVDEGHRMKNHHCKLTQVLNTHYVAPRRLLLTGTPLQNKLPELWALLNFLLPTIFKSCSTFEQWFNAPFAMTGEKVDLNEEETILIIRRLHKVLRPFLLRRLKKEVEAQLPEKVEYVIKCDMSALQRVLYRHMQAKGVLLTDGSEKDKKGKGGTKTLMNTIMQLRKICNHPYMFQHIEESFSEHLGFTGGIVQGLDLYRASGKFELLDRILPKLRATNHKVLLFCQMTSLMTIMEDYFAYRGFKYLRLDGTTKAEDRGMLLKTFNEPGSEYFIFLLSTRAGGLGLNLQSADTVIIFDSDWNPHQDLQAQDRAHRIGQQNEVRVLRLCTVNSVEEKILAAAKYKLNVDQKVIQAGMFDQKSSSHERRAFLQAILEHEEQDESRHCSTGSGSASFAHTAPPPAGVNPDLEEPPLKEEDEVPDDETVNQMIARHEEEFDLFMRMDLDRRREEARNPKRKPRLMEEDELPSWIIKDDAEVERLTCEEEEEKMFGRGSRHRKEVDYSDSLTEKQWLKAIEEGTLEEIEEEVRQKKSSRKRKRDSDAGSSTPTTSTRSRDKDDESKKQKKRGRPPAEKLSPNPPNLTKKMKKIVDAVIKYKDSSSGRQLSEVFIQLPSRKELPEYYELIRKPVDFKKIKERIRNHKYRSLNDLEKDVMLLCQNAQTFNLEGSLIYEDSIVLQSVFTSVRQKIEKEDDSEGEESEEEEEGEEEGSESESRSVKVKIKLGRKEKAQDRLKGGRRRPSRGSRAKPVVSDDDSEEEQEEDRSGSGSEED
Sequence of BRM (P51531 whole entry): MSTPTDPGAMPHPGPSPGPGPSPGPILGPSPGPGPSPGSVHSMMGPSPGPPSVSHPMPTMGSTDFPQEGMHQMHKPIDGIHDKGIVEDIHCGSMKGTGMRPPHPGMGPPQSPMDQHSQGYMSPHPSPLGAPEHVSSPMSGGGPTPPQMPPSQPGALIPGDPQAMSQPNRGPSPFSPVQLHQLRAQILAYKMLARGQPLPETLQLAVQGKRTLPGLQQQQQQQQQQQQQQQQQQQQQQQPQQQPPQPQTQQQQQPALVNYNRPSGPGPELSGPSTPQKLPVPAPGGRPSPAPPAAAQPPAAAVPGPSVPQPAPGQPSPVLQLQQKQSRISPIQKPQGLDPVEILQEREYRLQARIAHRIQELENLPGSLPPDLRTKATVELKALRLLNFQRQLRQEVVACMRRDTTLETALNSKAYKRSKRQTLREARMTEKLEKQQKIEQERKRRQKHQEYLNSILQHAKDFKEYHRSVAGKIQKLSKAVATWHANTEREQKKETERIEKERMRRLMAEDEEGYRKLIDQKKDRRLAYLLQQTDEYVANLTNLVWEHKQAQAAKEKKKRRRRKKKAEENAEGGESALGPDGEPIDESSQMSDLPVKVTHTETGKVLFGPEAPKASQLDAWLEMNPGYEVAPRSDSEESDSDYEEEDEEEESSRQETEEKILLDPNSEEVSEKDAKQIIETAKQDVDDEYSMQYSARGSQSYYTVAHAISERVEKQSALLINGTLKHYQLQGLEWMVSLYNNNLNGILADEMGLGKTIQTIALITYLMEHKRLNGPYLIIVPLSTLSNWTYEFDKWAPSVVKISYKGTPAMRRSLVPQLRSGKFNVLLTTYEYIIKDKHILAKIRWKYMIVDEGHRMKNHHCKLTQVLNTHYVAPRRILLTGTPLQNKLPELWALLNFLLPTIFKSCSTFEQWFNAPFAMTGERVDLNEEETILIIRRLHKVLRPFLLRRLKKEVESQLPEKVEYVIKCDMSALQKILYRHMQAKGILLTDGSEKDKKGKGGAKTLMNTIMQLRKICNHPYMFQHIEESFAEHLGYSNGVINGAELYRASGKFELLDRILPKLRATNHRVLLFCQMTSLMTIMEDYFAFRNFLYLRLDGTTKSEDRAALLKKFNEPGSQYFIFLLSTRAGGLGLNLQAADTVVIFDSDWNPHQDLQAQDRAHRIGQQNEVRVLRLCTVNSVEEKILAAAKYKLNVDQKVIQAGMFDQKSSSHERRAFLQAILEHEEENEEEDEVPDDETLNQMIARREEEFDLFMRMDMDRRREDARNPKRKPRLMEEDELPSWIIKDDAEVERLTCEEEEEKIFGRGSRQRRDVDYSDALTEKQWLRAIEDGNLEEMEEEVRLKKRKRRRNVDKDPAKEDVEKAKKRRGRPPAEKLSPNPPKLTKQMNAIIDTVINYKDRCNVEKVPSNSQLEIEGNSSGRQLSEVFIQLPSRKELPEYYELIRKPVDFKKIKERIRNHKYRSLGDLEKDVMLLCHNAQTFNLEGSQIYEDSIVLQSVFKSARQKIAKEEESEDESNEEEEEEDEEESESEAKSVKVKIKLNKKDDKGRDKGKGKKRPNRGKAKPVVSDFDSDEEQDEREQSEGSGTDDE

Structure (SMILES) | DC50 (BRG1) [nM] | DC50 (BRM) [nM] | BRM IF Degradation Sinf (%) (BRM) | Dmax (BRG1) [%]
COC(=O)C1CCN1CC#Cc1cc(N2C3CCC2CN(c2cc(-c4ccccc4O)nnc2N)C3)ccn1 (stereo not drawn) [Compound 176, methyl 1-[3-[4-[3-[3-amino-6-(2-hydroxyphenyl)pyridazin-4-yl]-3,8-diazabicyclo[3.2.1]octan-8-yl]-2-pyridyl]prop-2-ynyl]azetidine-2-carboxylate] | > 100 | 10 to 100 | E (E indicates −30%-−70%) | –
Nc1nnc(-c2ccccc2O)cc1N1CC2CCC(C1)N2c1ccnc(C#CCN2CC3(C2)C(CF)CCS3(=O)=O)c1 (stereo not drawn) [Compound 177, 2-[6-amino-5-[8-[2-[3-[8-(fluoromethyl)-5,5-dioxo-5lambda6-thia-2-azaspiro[3.4]octan-2-yl]prop-1-ynyl]-4-pyridyl]-3,8-diazabicyclo[3.2.1]octan-3-yl]pyridazin-3-yl]phenol] | 10 to 100 | 10 to 100 | E (E indicates −30%-−70%) | 30 to 70
Nc1nnc(-c2ccccc2O)cc1N1CC2CCC(C1)N2c1ccnc(C#CCN2CC3(CCCO3)C2)c1 [Compound 178, 2-[6-amino-5-[8-[2-[3-(5-oxa-2-azaspiro[3.4]octan-2-yl)prop-1-ynyl]-4-pyridyl]-3,8-diazabicyclo[3.2.1]octan-3-yl]pyridazin-3-yl]phenol] | < 10 | 10 to 100 | F (F indicates −71%-−120%) | 30 to 70
Nc1nnc(-c2ccccc2O)cc1N1CC2CCC(C1)N2c1ccnc(C#CCN2CC(CO)(c3ccccc3)C2)c1 [Compound 179, 2-[6-amino-5-[8-[2-[3-[3-(hydroxymethyl)-3-phenyl-azetidin-1-yl]prop-1-ynyl]-4-pyridyl]-3,8-diazabicyclo[3.2.1]octan-3-yl]pyridazin-3-yl]phenol] | 10 to 100 | 10 to 100 | F (F indicates −71%-−120%) | 30 to 70
CC1CN(CC#Cc2cc(N3C4CCC3CN(c3cc(-c5ccccc5O)nnc3N)C4)ccn2)C1C (stereo not drawn) [Compound 180, 2-[6-amino-5-[8-[2-[3-(2,3-dimethylazetidin-1-yl)prop-1-ynyl]-4-pyridyl]-3,8-diazabicyclo[3.2.1]octan-3-yl]pyridazin-3-yl]phenol] | < 10 | < 10 | E (E indicates −30%-−70%) | 30 to 70
Nc1nnc(-c2ccccc2O)cc1N1CC2CCC(C1)N2c1ccnc(C#CCN2CCCCC(F)(F)C2)c1 [Compound 181, 2-[6-amino-5-[8-[2-[3-(3,3-difluoroazepan-1-yl)prop-1-ynyl]-4-pyridyl]-3,8-diazabicyclo[3.2.1]octan-3-yl]pyridazin-3-yl]phenol] | 10 to 100 | 10 to 100 | F (F indicates −71%-−120%) | 30 to 70
COC(=O)C1CCS(=O)(=O)C12CN(CC#Cc1cc(N3C4CCC3CN(c3cc(-c5ccccc5O)nnc3N)C4)ccn1)C2 (stereo not drawn) [Compound 183, methyl 2-[3-[4-[3-[3-amino-6-(2-hydroxyphenyl)pyridazin-4-yl]-3,8-diazabicyclo[3.2.1]octan-8-yl]-2-pyridyl]prop-2-ynyl]-5,5-dioxo-51ambda6-thia-2-azaspiro[3.4]octane-8-carboxylate] | > 100 | > 100 | E (E indicates −30%-−70%) | –
CC1CCN1CC#Cc1cc(N2C3CCC2CN(c2cc(-c4ccccc4O)nnc2N)C3)ccn1 (stereo not drawn) [Compound 184, 2-[6-amino-5-[8-[2-[3-(2-methylazetidin-1-yl)prop-1-ynyl]-4-pyridyl]-3,8-diazabicyclo[3.2.1]octan-3-yl]pyridazin-3-yl]phenol] | < 10 | < 10 | E (E indicates −30%-−70%) | 30 to 70
Nc1nnc(-c2ccccc2O)cc1N1CC2CCC(C1)N2c1ccnc(C#CCN2CC3(CC(O)C3)C2)c1 [Compound 185, 2-[3-[4-[3-[3-amino-6-(2-hydroxyphenyl)pyridazin-4-yl]-3,8-diazabicyclo[3.2.1]octan-8-yl]-2-pyridyl]prop-2-ynyl]-2-azaspiro[3.3]heptan-6-ol] | 10 to 100 | > 100 | F (F indicates −71%-−120%) | 30 to 70
COC[C@@H]1CCN1CC#Cc1cc(N2C3CCC2CN(c2cc(-c4ccccc4O)nnc2N)C3)ccn1 [Compound 186, 2-[6-amino-5-[8-[2-[3-[(2S)-2-(methoxymethyl)azetidin-1-yl]prop-1-ynyl]-4-pyridyl]-3,8-diazabicyclo[3.2.1]octan-3-yl]pyridazin-3-yl]phenol] | 10 to 100 | < 10 | E (E indicates −30%-−70%) | 30 to 70
CC1(C)CCN1CC#Cc1cc(N2C3CCC2CN(c2cc(-c4ccccc4O)nnc2N)C3)ccn1 [Compound 187, 2-[6-amino-5-[8-[2-[3-(2,2-dimethylazetidin-1-yl)prop-1-ynyl]-4-pyridyl]-3,8-diazabicyclo[3.2.1]octan-3-yl]pyridazin-3-yl]phenol] | < 10 | < 10 | E (E indicates −30%-−70%) | 30 to 70
CN1CCOC2(C1)CN(CC#Cc1cc(N3C4CCC3CN(c3cc(-c5ccccc5O)nnc3N)C4)ccn1)C2 [Compound 188, 2-[6-amino-5-[8-[2-[3-(8-methyl-5-oxa-2,8-diazaspiro[3.5]nonan-2-yl)prop-1-ynyl]-4-pyridyl]-3,8-diazabicyclo[3.2.1]octan-3-yl]pyridazin-3-yl]phenol] | > 100 | > 100 | E (E indicates −30%-−70%) | –
Nc1nnc(-c2ccccc2O)cc1N1CC2CCC(C1)N2c1ccnc(C#CCN2CCCC(F)(F)CC2)c1 [Compound 189, 2-[6-amino-5-[8-[2-[3-(4,4-difluoroazepan-1-yl)prop-1-ynyl]-4-pyridyl]-3,8-diazabicyclo[3.2.1]octan-3-yl]pyridazin-3-yl]phenol] | < 10 | < 10 | F (F indicates −71%-−120%) | 30 to 70
CC1CCN(CC#Cc2cc(N3C4CCC3CN(c3cc(-c5ccccc5O)nnc3N)C4)ccn2)CCC1O (stereo not drawn) [Compound 190, 1-[3-[4-[3-[3-amino-6-(2-hydroxyphenyl)pyridazin-4-yl]-3,8-diazabicyclo[3.2.1]octan-8-yl]-2-pyridyl]prop-2-ynyl]-5-methyl-azepan-4-ol] | < 10 | < 10 | F (F indicates −71%-−120%) | 30 to 70
Nc1nnc(-c2ccccc2O)cc1N1CC2CCC(C1)N2c1ccnc(C#CCN2CCCC(O)CC2)c1 (stereo not drawn) [Compound 191, 1-[3-[4-[3-[3-amino-6-(2-hydroxyphenyl)pyridazin-4-yl]-3,8-diazabicyclo[3.2.1]octan-8-yl]-2-pyridyl]prop-2-ynyl]azepan-4-ol] | < 10 | < 10 | F (F indicates −71%-−120%) | 71 to 120
CC1CCCCN(CC#Cc2cc(N3C4CCC3CN(c3cc(-c5ccccc5O)nnc3N)C4)ccn2)C1 (stereo not drawn) [Compound 192, 2-[6-amino-5-[8-[2-[3-(3-methylazepan-1-yl)prop-1-ynyl]-4-pyridyl]-3,8-diazabicyclo[3.2.1]octan-3-yl]pyridazin-3-yl]phenol] | < 10 | < 10 | F (F indicates −71%-−120%) | 71 to 120
Nc1nnc(-c2ccccc2O)cc1N1CC2CCC(C1)N2c1ccnc(C#CCN2CCCC(F)CC2)c1 (stereo not drawn) [Compound 193, 2-[6-amino-5-[8-[2-[3-(4-fluoroazepan-1-yl)prop-1-ynyl]-4-pyridyl]-3,8-diazabicyclo[3.2.1]octan-3-yl]pyridazin-3-yl]phenol] | < 10 | < 10 | F (F indicates −71%-−120%) | 71 to 120
Nc1nnc(-c2ccccc2O)cc1N1CC2CCC(C1)N2c1ccnc(C#CCN2CCCCC(F)C2)c1 (stereo not drawn) [Compound 194, 2-[6-amino-5-[8-[2-[3-(3-fluoroazepan-1-yl)prop-1-ynyl]-4-pyridyl]-3,8-diazabicyclo[3.2.1]octan-3-yl]pyridazin-3-yl]phenol] | < 10 | < 10 | F (F indicates −71%-−120%) | 30 to 70
CC1CCCN(CC#Cc2cc(N3C4CCC3CN(c3cc(-c5ccccc5O)nnc3N)C4)ccn2)CC1C (stereo not drawn) [Compound 195, 2-[6-amino-5-[8-[2-[3-(3,4-dimethylazepan-1-yl)prop-1-ynyl]-4-pyridyl]-3,8-diazabicyclo[3.2.1]octan-3-yl]pyridazin-3-yl]phenol] | < 10 | < 10 | F (F indicates −71%-−120%) | 30 to 70
CC1CN(CC#Cc2cc(N3C4CCC3CN(c3cc(-c5ccccc5O)nnc3N)C4)ccn2)CCCC1O (stereo not drawn) [Compound 196, 1-[3-[4-[3-[3-amino-6-(2-hydroxyphenyl)pyridazin-4-yl]-3,8-diazabicyclo[3.2.1]octan-8-yl]-2-pyridyl]prop-2-ynyl]-3-methyl-azepan-4-ol] | < 10 | < 10 | F (F indicates −71%-−120%) | 71 to 120
CC1(CO)CCCN(CC#Cc2cc(N3C4CCC3CN(c3cc(-c5ccccc5O)nnc3N)C4)ccn2)CC1 (stereo not drawn) [Compound 197, 2-[6-amino-5-[8-[2-[3-[4-(hydroxymethyl)-4-methyl-azepan-1-yl]prop-1-ynyl]-4-pyridyl]-3,8-diazabicyclo[3.2.1]octan-3-yl]pyridazin-3-yl]phenol] | < 10 | < 10 | F (F indicates −71%-−120%) | 30 to 70
